This note sets out measurements from patent publication US20230331803A1, “CO-AGONISTS OF THE GLP-1 AND AMYLIN RECEPTORS” (priority 2020, published 2023).

What is called EC50 is the midpoint of the concentration-response curve. The term pEC50 denotes −log10 of the EC50, conventionally taken in molar units.

pEC50: −log10 of the molar value. Where two headings read alike, the source gives them in different places. Starred links: 1 amine or outer side, 2 acyl side, 3 side chain; linkers in the order of their positions; H or OH if unused. Positions of bridges follow the written chain, without caps; N, C: chain ends. Non-standard residues stand in square brackets, D forms with d. Groups on a side chain read outwards from the residue. *: point of attachment. X1 = O=C(O)CCCCCCCCCCCCCCC(=O)N[C@@H](CCC(=O)NCCOCCOCC(=O)NCCOCCOCC(=O)NCCCC[C@H](NC(=O)COCCOCCNC(=O)COCCOCCNC(=O)CC[C@H](NC(=O)CCCCCCCCCCCCCCC(=O)O)C(=O)O)C(=O)*)C(=O)O; Butyryl(4-SO2NHCO(CH2)16Tz) = O=C(CCCCCCCCCCCCCCCCc1nnn[nH]1)NS(=O)(=O)CCCC(=O)*; Hexadecanoyl(16-SO3H) = O=C(CCCCCCCCCCCCCCCS(=O)(=O)O)*; C20 diacid = O=C(O)CCCCCCCCCCCCCCCCCCC(=O)*; C18 diacid = O=C(O)CCCCCCCCCCCCCCCCC(=O)*; C16 diacid = O=C(O)CCCCCCCCCCCCCCC(=O)*; γGlu = O=C(O)[C@H](CCC(=O)[*:2])N[*:1]; X2 = O=C(CCCCCCCCCCCCCCCCc1nnn[nH]1)*; εLys = N[C@@H](CCCCN[*:1])C(=O)[*:2]; AEEA = NCCOCCOCC(=O)O; Aib = CC(C)(N)C(=O)O; Ahx = NCCCCCC(=O)O

The target of one test is T1, human GLP-1 receptor (Homo sapiens, UniProt P43220).
T1 construct: expressed in transfected cells; host or cells: BHK (Baby Hamster Kidney) cells, clone BHK 467-12A KZ-10, stably transfected, with CRE-luciferase reporter
T1 sequence (P43220 24-463): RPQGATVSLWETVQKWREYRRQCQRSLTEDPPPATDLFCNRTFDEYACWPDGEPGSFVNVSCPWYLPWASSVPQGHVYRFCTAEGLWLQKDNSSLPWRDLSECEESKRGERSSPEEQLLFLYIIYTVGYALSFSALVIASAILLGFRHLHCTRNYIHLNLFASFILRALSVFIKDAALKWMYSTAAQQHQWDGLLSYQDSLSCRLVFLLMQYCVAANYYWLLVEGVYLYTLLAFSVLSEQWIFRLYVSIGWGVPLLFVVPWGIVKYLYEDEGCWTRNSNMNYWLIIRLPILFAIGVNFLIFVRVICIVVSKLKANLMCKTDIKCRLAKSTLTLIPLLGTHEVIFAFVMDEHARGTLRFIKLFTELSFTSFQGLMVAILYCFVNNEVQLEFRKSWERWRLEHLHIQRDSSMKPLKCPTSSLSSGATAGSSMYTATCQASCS
The test can be described thus: Human GLP-1 receptor in vitro potency assay (CRE-luciferase reporter, BHK cells). It is filed as cell-based. The note with it: for EC50: Table 4a, BHK cells expressing human GLP-1R, CRE-Luc, 3 hours, read-out: Human GLP-1R potency [EC50 (pM)]. (In general: In a reporter assay the amount or activity of a reporter protein is the signal.)

In test [1] the target is T2, human amylin receptor (hAmyR3) (Homo sapiens, UniProt O60896+P30988).
T2 construct: host or cells: BHK cells (Hollex-1 line: human calcitonin receptor (a) + CRE-Luc), further transfected with human RAMP3
T2 sequence (P30988 25-474): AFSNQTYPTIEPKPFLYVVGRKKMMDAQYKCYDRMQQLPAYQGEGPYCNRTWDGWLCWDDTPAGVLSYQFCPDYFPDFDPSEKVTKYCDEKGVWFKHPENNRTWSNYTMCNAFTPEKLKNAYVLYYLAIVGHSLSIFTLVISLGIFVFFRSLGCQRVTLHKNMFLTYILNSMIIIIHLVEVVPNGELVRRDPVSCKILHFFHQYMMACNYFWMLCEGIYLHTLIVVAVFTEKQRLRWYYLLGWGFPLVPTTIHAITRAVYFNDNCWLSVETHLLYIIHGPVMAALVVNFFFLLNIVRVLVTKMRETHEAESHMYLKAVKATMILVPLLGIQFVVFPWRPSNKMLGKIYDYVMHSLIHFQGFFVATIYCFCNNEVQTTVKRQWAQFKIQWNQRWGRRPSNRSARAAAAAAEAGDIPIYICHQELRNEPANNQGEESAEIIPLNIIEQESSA
T2 sequence (O60896 24-148): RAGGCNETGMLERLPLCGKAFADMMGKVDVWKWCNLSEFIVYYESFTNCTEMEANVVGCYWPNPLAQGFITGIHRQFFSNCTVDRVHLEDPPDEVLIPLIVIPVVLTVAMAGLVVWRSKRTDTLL
Briefly: Human amylin receptor in vitro potency assay (CRE-luciferase reporter, BHK cells).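 On all read-outs here: BHK cells expressing human calcitonin receptor plus RAMP3 (amylin-3 receptor) with a CRE-luciferase reporter, agonist activity read as luminescence from cAMP-driven transcription, 7-point serial dilutions.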 It counts as cell-based. The note with it: for EC50: Table 4a, BHK hAmyR3/CRE-Luc cells, 3 hours, read-out: Human AmyR3 potency [EC50 (pM)].

For the substance “H-H[Aib]EGTFTSDVSK([AEEA-AEEA-γGlu-C16 diacid])YLEEQAARK([AEEA-AEEA-γGlu-C16 diacid])FIEWLVRGAAEASELSTAALGRLSAELHELATLPRTETGSGSP-NH2 [Compound 0629]”, the EC50 is 7.9 pM at human GLP-1 receptor and 97.5 pM in test [1].
The corresponding values for “H-H[Aib]EGTFTSDVSK([AEEA-AEEA-γGlu-C16 diacid])YLEEQAVREFIAK([AEEA-AEEA-γGlu-C16 diacid])LVRGRGGGEASELSTAALGRLSAELHELATLPRTETGSGSP-NH2 [Compound 0483]” are 33.7 pM and 36.8 pM.
With “H-H[Aib]EGTFTSDVSK([AEEA-X1])YLEEQAAREFIAWLVRGRGGGGGEASELSTAALGRLSAELHELATLPRTETGSGSP-NH2 [Compound 0564]”, the EC50 on human GLP-1 receptor worked out at 24.5 pM; in test [1], 14.5 pM.
The corresponding values for “H-H[Aib]EGTFTSDVSK([γGlu-γGlu-γGlu-γGlu-C16 diacid])YLEEQAARK([γGlu-γGlu-γGlu-γGlu-C16 diacid])FIAWLVRGRGEASELSTAALGRLSAELHELATLPRTETGSGSP-NH2 [Compound 0634]” are 14.7 pM and 59.4 pM.
On to “H-H[Aib]EGTFTSDVSK([γGlu-γGlu-γGlu-γGlu-C20 diacid])YLEEQAAREFIEWLVRGAAEASELSTAALGRLSAELHELATLPRTETGSGSP-NH2 [Compound 0632]”, for which the EC50 turned out to be 18.8 pM at human GLP-1 receptor and 148 pM in test [1].
For “H-H[Aib]EGTFTSDVSSYLEEK([AEEA-AEEA-γGlu-C16 diacid])AAREFIAWLVRGRGGGGGASELSTAALGRLSK([AEEA-AEEA-γGlu-C16 diacid])ELHELATLPRTETGSGSP-NH2 [Compound 0295]”, in that order: 4.8 pM and 32.7 pM.
For “H-H[Aib]EGTFTSDVSSYLEEK([AEEA-AEEA-γGlu-C16 diacid])AAREFIAWLVRGRGGGGGEASELSTAALGRLSAELHELATLK([AEEA-AEEA-γGlu-C16 diacid])RTETGSGSP-NH2 [Compound 0397]”, in that order: 3.8 pM and 18.5 pM.
Consider “H-H[Aib]EGTFTSDVSSYLEEK([AEEA-AEEA-γGlu-C16 diacid])AAREFIAWLVRGRGGGGGEASELSTAALGRLSAELHELK([AEEA-AEEA-γGlu-C16 diacid])TLPRTETGSGSP-NH2 [Compound 0396]”, for which the figures for the EC50 (at human GLP-1 receptor; in test [1]) were 4.8 pM and 32.8 pM, respectively.
The corresponding values for “H-H[Aib]EGTFTSDVSSYLEEK([AEEA-AEEA-γGlu-C16 diacid])AAREFIAWLVRGRGGGGGEASELSTAALGRLSAELHK([AEEA-AEEA-γGlu-C16 diacid])LATLPRTETGSGSP-NH2 [Compound 0299]” are 6 pM and 11.5 pM.
The corresponding values for “H-H[Aib]EGTFTSDVSSYLEEQAAREFIAWLVK([AEEA-AEEA-γGlu-C18 diacid])GRGGGGGEASELSTAALGRLSAELHELATLPRTETGSGSP-NH2 [Compound 0144]” are 7.1 pM and 16.8 pM.
The corresponding values for “H-H[Aib]EGTFTSDVSSYLEEQAAREFIAWLVRGK([AEEA-AEEA-γGlu-C16 diacid])GGGGGEASELSTAALGRLSAELHELATLK([AEEA-AEEA-γGlu-C16 diacid])RTETGSGSP-NH2 [Compound 0284]” are 41.7 pM and 32.8 pM.
With “H-H[Aib]EGTFTSDVSSYLEEQAAREFIAWLVRGK([AEEA-AEEA-γGlu-C16 diacid])GGGGGEASELSTAALGRLSAELHELATLPRTETGK([AEEA-AEEA-γGlu-C16 diacid])GSP-NH2 [Compound 0285]”, the EC50 at human GLP-1 receptor is 19 pM; in test [1], 78.9 pM.
On to “H-H[Aib]EGTFTSDVSSYLEEQAAREFIAWLVRGK([AEEA-AEEA-γGlu-C16 diacid])GGGGGEASELSTAALGRLSAELHELK([AEEA-AEEA-γGlu-C16 diacid])TLPRTETGSGSP-NH2 [Compound 0281]”, for which the EC50 at human GLP-1 receptor turned out to be 35.2 pM; in test [1] it was 114 pM.
Take “H-H[Aib]EGTFTSDVSSYLEEQAAREFIAWLVRGK([AEEA-AEEA-γGlu-C16 diacid])GGGGGEASELSTAALGRLSAELHK([AEEA-AEEA-γGlu-C16 diacid])LATLPRTETGSGSP-NH2 [Compound 0280]”: the results for the EC50 (on human GLP-1 receptor; in test [1]) were 34.3 pM and 18 pM, respectively.
“H-H[Aib]EGTFTSDVSSYLEEQAAREFIAWLVRGK([AEEA-AEEA-γGlu-C18 diacid])GGEASELSTAALGRLSAELHELATLPRTETGSGSP-NH2 [Compound 0132]”: the EC50 at human GLP-1 receptor came to 3 pM; in test [1] it was 34.9 pM.
As for “H-H[Aib]EGTFTSDVSSYLEEQAAREFIAWLVRGRGK(Butyryl(4-SO2NHCO(CH2)16Tz))GGGASELSTAALGRLSAELHELATLPRTETGSGSP-NH2 [Compound 0145]”, the EC50 on human GLP-1 receptor amounted to 11.9 pM; in test [1], 16.5 pM.
For “H-H[Aib]EGTFTSDVSSYLEEQAAREFIAWLVRGRK(Butyryl(4-SO2NHCO(CH2)16Tz))ELSTAALGRLSAELHELATLPRTETGSGSP-NH2 [Compound 0102]”, in that order: 14.7 pM and 9.8 pM.
With “H-H[Aib]EGTFTSDVSSYLEEQAAREFIAWLVRGRK([AEEA-AEEA-AEEA-AEEA-γGlu-C18 diacid])GGGGEASELSTAALGRLSAELHELATLPRTETGSGSP-NH2 [Compound 0662]”, the EC50 stood at 3 pM at human GLP-1 receptor and 14.6 pM in test [1].
For “H-H[Aib]EGTFTSDVSSYLEEQAAREFIAWLVRGRK([AEEA-AEEA-AEEA-AEEA-γGlu-C20 diacid])GGGGEASELSTAALGRLSAELHELATLPRTETGSGSP-NH2 [Compound 0663]”, in that order: 3.2 pM and 12.6 pM.
The corresponding values for “H-H[Aib]EGTFTSDVSSYLEEQAAREFIAWLVRGRK([AEEA-AEEA-AEEA-γGlu-C18 diacid])GGGGEASELSTAALGRLSAELHELATLPRTETGSGSP-NH2 [Compound 0661]” are 2.8 pM and 14.4 pM.
For “H-H[Aib]EGTFTSDVSSYLEEQAAREFIAWLVRGRK([AEEA-AEEA-γGlu-C18 diacid])EASELSTAALGRLSAELHELATLPRTETGSGSP-NH2 [Compound 0115]”, in that order: 2.2 pM and 22.8 pM.
Turning to “H-H[Aib]EGTFTSDVSSYLEEQAAREFIAWLVRGRK([AEEA-AEEA-γGlu-C18 diacid])GGEASELSTAALGRLSAELHELATLPRTETGSGSP-NH2 [Compound 0114]”, the results for the EC50 (on human GLP-1 receptor; in test [1]) were 1 pM and 17.5 pM, respectively.
On to “H-H[Aib]EGTFTSDVSSYLEEQAAREFIAWLVRGRK([AEEA-AEEA-γGlu-C18 diacid])GGGGEKCNTATCATQRLANFLVHSSNNFGPILPPTNVGSNTY-NH2 (disulfide 38-43 (inferred)) [Comparator compound 0671, reference compound]”, for which the pEC50 at human GLP-1 receptor was 11.35; in test [1], 9.64. At human GLP-1 receptor (Tables 4a-4c), the “Ability to agonise the GLP-1 receptor, in words” value is “retained their potencies on the GLP-1 receptor”. Besides, the “Ability to agonise the amylin receptor, in words” value in test [1] (Tables 4a-4c) was “impaired potency on the amylin receptor”.
Turning to “H-H[Aib]EGTFTSDVSSYLEEQAAREFIAWLVRGRK([AEEA-AEEA-γGlu-C18 diacid])GGGGSGGGEASELSTAALGRLSAELHELATLPRTETGSGSP-NH2 [Compound 0637]”, the EC50 at human GLP-1 receptor amounted to 1.9 pM; in test [1], 14.1 pM.
The corresponding values for “H-H[Aib]EGTFTSDVSSYLEEQAAREFIAWLVRGRK([AEEA-AEEA-γGlu-C20 diacid])GGGGSGGGEASELSTAALGRLSAELHELATLPRTETGSGSP-NH2 [Compound 0638]” are 4.6 pM and 6.9 pM.
The corresponding values for “H-H[Aib]EGTFTSDVSSYLEEQAAREFIAWLVRGRK([AEEA-AEEA-γGlu-Hexadecanoyl(16-SO3H)])GGGGEASELSTAALGRLSAELHELATLPRTETGSGSP-NH2 [Compound 0654]” are 2.9 pM and 11.3 pM.
The corresponding values for “H-H[Aib]EGTFTSDVSSYLEEQAAREFIAWLVRGRK([AEEA-AEEA-γGlu-X2])GGGGEASELSTAALGRLSAELHELATLPRTETGSGSP-NH2 [Compound 0655]” are 3 pM and 11.4 pM.
Turning to “H-H[Aib]EGTFTSDVSSYLEEQAAREFIAWLVRGRK([AEEA-γGlu-C18 diacid])GGGGEASELSTAALGRLSAELHELATLPRTETGSGSP-NH2 [Compound 0660]”, the EC50 was found to be 3.9 pM at human GLP-1 receptor and 12.7 pM in test [1].
For “H-H[Aib]EGTFTSDVSSYLEEQAAREFIAWLVRGRK([Ahx-Ahx-γGlu-C18 diacid])GGGGEASELSTAALGRLSAELHELATLPRTETGSGSP-NH2 [Compound 0658]”, in that order: 3.1 pM and 11 pM.
The corresponding values for “H-H[Aib]EGTFTSDVSSYLEEQAAREFIAWLVRGRK([Ahx-Ahx-γGlu-C20 diacid])GGGGEASELSTAALGRLSAELHELATLPRTETGSGSP-NH2 [Compound 0659]” are 4.7 pM and 11.5 pM.
For “H-H[Aib]EGTFTSDVSSYLEEQAAREFIAWLVRGRK([γGlu-C20 diacid])EASELSTAALGRLSAELHELATLPRTETGSGSP-NH2 [Compound 0141]”, in that order: 43.3 pM and 13.2 pM.
For the substance “H-H[Aib]EGTFTSDVSSYLEEQAAREFIAWLVRGRK([εLys-εLys-γGlu-C18 diacid])GGGGEASELSTAALGRLSAELHELATLPRTETGSGSP-NH2 [Compound 0656]”, the results for the half-maximal effective concentration (EC50) (at human GLP-1 receptor; in test [1]) were 4.1 pM and 13.3 pM, respectively.
For “H-H[Aib]EGTFTSDVSSYLEEQAAREFIAWLVRGRK([εLys-εLys-γGlu-C20 diacid])GGGGEASELSTAALGRLSAELHELATLPRTETGSGSP-NH2 [Compound 0657]”, in that order: 9.9 pM and 10.4 pM.
The corresponding values for “H-H[Aib]EGTFTSDVSSYLEEQAAREFIAWLVRK([AEEA-AEEA-γGlu-C16 diacid])RGGGGGASELSTAALGRLSK([AEEA-AEEA-γGlu-C16 diacid])ELHELATLPRTETGSGSP-NH2 [Compound 0297]” are 30.2 pM and 46 pM.
